pIC50: −log10 of the molar value. “Also recorded” adds a separate entry of the source. Read-outs that look alike come from different tables or passages of the source.
How the values were obtained:
[1] = system: panel of SCLC cell lines (DMS53, DMS114, DMS153, H146, H209, H69, H128, H187, H526)
Method: (§2) An agnostic screening approach was employed by evaluating in vitro cytotoxicity of biologically targeted agents that have not been previously evaluated in SCLC clinical trials. […] The cytotoxicity of 10 different targeted agents was determined in a panel of genomically annotated SCLC cell lines by low throughput MTS assay. Inhibitors of the bromodomain, HSP90, CDK2, MEK, PIK3CA and PLK1 were tested in a panel of SCLC cell lines (DMS53, DMS114, DMS153, H146, H209, H69, H128, H187, H526) well characterized for genetic alterations and expression profiles.

[2] = system: TKO-005 PDX of platinum sensitive SCLC; test: Patient derived xenograft (PDX) model of platinum sensitive SCLC (TKO-005); format: in vivo
Description: PDX models generated from SCLC patients enrolled in a recently completed translational phase II clinical trial of arsenic trioxide were employed. […] The activity of rigosertib was compared to that of cisplatin (expected to be active in a PDX from a platinum sensitive tumor) and arsenic trioxide (expected to have no efficacy based on the clinical trial outcome for the patient whose tumor biopsy was used to generate the PDX).

H292 NSCLC cell line = test: In vitro cytotoxicity before and after shRNA knockdown of TP53 in H292; format: cell-based; settings: compared to parental and vector-treated controls
Method: (§1) Whether depletion of endogenous wild type P53 and enforced expression of active P53 mutant would alter cancer cell line sensitivity to PLK1 inhibitor was evaluated. Due to low transfection efficiency in SCLC cell lines, established NSCLC cell line models were relied on to interrogate PLK1 activity following TP53 gene modulation. In vitro cytotoxicity of PLK1 inhibitors were compared before and after shRNA knockdown of TP53 in H292 and A549. In these cell lines with wild type TP53, there was increased sensitivity to PLK1 inhibitors following shRNA knockdown in comparison to parent cells and vector treated controls (FIG. 4). We also evaluated PLK1 inhibitor activity in p53−/− H1299 cells following enforced expression of active mutant forms of TP53. There was reduced sensitivity of the mutant-bearing cell lines compared to parental p53−/− cells (FIG. 5).

A549 NSCLC cell line = test: In vitro cytotoxicity before and after shRNA knockdown of TP53 in A549; format: cell-based; settings: compared to parental and vector-treated controls
Method: as §1

[3] = system: panel of SCLC cell lines (DMS53, DMS114, DMS153, H146, H209, H69, H128, H187, H526); test: Agnostic cytotoxicity screening of targeted agents in panel of SCLC cell lines (MTS assay); settings: for IC50 concentration / activity against SCLC cell lines (in words) / In vitro activity versus a priori threshold (submicromolar in vitro cytotoxicity): panel of SCLC cell lines; for In vitro activity versus a priori threshold (submicromolar in vitro cytotoxicity): MTS assay
Method: as §2

DMS53 SCLC cell line = test: In vitro cytotoxicity, low throughput MTS assay, DMS53; format: cell-based; settings: Homo sapiens, DMS-53, TP53 c.722C > T, read-out: IC50 (nM), cell line sensitivity to volasertib
Method: as §2

DMS153 SCLC cell line = test: In vitro cytotoxicity, low throughput MTS assay, DMS153; format: cell-based; settings: Homo sapiens, DMS-153, TP53 c.463A > C, read-out: IC50 (nM), cell line sensitivity to volasertib
Method: as §2

H146 SCLC cell line = test: In vitro cytotoxicity, low throughput MTS assay, H146; format: cell-based; settings: Homo sapiens, NCI-H146, TP53 wild type, read-out: IC50 (nM), cell line sensitivity to volasertib
Method: as §2

H209 SCLC cell line = test: In vitro cytotoxicity, low throughput MTS assay, H209; format: cell-based; settings: Homo sapiens, NCI-H209, TP53 c.673-2A > T, read-out: IC50 (nM), cell line sensitivity to volasertib
Method: (§3) The cytotoxicity of 10 different targeted agents was determined in a panel of genomically annotated SCLC cell lines by low throughput MTS assay. Inhibitors of the bromodomain, HSP90, CDK2, MEK, PIK3CA and PLK1 were tested in a panel of SCLC cell lines (DMS53, DMS114, DMS153, H146, H209, H69, H128, H187, H526) well characterized for genetic alterations and expression profiles.

H69 SCLC cell line = test: In vitro cytotoxicity, low throughput MTS assay, H69; format: cell-based; settings: TP53 c.511G > T, concurrent hemizygous deletion, read-out: IC50 (nM), cell line sensitivity to volasertib
Method: as §3

H187 SCLC cell line = test: In vitro cytotoxicity, low throughput MTS assay, H187; format: cell-based
Method: as §2

DMS114 SCLC cell line = test: In vitro cytotoxicity, low throughput MTS assay, DMS114; format: cell-based; settings: Homo sapiens, DMS-114, TP53 c.637C > T, concurrent hemizygous deletion, read-out: IC50 (nM), cell line sensitivity to volasertib
Method: as §3

[4] = system: H526 SCLC cell line xenograft; test: Subcutaneous xenograft model of H526 SCLC cell line; format: in vivo, athymic (nu/nu) mice; settings: volasertib 30 mg/kg i.p. weekly; p<0.003
Method: To establish whether the promising in vitro activity of these PLK1 inhibitors translates into antitumor efficacy in vivo. The activity of PLK1 inhibitors were compared to that of approved drugs currently employed in the management of SCLC. The in vivo efficacy of volasertib (30 mg/kg i.p. weekly), cisplatin (3 mg/kg i.p. weekly) and irinotecan (25 mg/kg i.p. weekly) was tested, using a subcutaneous xenograft model of the H526 cell line, the most sensitive cell line from our in vitro screen (FIG. 2). Tumor xenografts were established in 6-week old athymic (nu/nu) mice using H526 cells (1-2×10^7) suspended in serum-free medium mixed with Matrigel™ solution and injected subcutaneously into the flank region of nude mice. Treatment began in groups of tumor-bearing mice (approximately 6 mice per group) matched for body weight and tumor volume when the tumors achieved a volume of approximately 100 mm^3.

SMILES | In vitro activity versus a priori threshold (submicromolar in vitro cytotoxicity) [1] | Tumor growth inhibition compared to vehicle [2] | Sensitivity to PLK1 inhibitor after shRNA knockdown of TP53 (H292 NSCLC cell line) | Sensitivity to PLK1 inhibitor after shRNA knockdown of TP53 (A549 NSCLC cell line) | IC50 concentration / activity against SCLC cell lines (in words) [3] | In vitro activity versus a priori threshold (submicromolar in vitro cytotoxicity) [3] | also measured
CCNC(=O)c1noc(-c2cc(C(C)C)c(O)cc2O)c1-c1ccc(CN2CCOCC2)cc1 [AUY922] | met the a priori threshold of activity | – | – | – | – | – | –
CCc1cnn2c(NCc3ccc[n+]([O-])c3)cc(N3CCCC[C@H]3CCO)nc12 [SCH727965] | met the a priori threshold of activity | – | – | – | – | – | –
N.N.[Cl][Pt][Cl] [cisplatin] | – | comparable efficacy | – | – | – | – | –
COc1cc(OC)c(/C=C/S(=O)(=O)Cc2ccc(OC)c(NCC(=O)O)c2)c(OC)c1 [rigosertib] | – | significant tumor growth inhibition comparable to cisplatin | sensitized | sensitized | picomolar IC50 concentration; also recorded: low nanomolar to picomolar activity | met the a priori threshold of activity | Tumor weight compared to vehicle [2]: reduced tumor weight
CC[C@@H]1C(=O)N(C)c2cnc(Nc3ccc(C(=O)N[C@H]4CC[C@H](N5CCN(CC6CC6)CC5)CC4)cc3OC)nc2N1C(C)C [volasertib] | – | – | sensitized | sensitized | picomolar IC50 concentration; also recorded: low nanomolar to picomolar activity | met the a priori threshold of activity | IC50 (DMS53 SCLC cell line): 0.118 nM; IC50 (DMS153 SCLC cell line): 0.672 nM; IC50 (H146 SCLC cell line): 0.163 nM; IC50 (H209 SCLC cell line): 0.057 nM; IC50 (H69 SCLC cell line): 0.018 nM; Surviving viable cells (H187 SCLC cell line; BI6727 concentration of 0.01 nM and higher): no surviving viable cells; IC50 (H187 SCLC cell line; Homo sapiens, NCI-H187, TP53 c.722C > G, concurrent hemizygous deletion, read-out: IC50 (nM), cell line sensitivity to volasertib): 0.004 nM; IC50 (DMS114 SCLC cell line): 0.092 nM; Tumor growth inhibition relative to control [4]: significant tumor growth inhibition; pIC50 ([3]; read-out: mean IC50 concentration, less sensitive SCLC cell lines): 9.60; pIC50 ([3]; read-out: mean IC50 concentration, more sensitive SCLC cell lines): 10.52
